From patent publication US12552825B2 (Zikani Therapeutics, Inc., priority 2019, dated 2026)
Converted amounts (≈) assume the structure as drawn.

Assays:
Type in all cases: cell-based
S. aureus MP-12 = assay: microbe, parasite or virus in culture; settings: Staphylococcus aureus, MP12, read-out: MIC S. aureus MP-12
E. coli MP-4 = assay: MIC determination by CLSI broth dilution, E. coli MP-4; settings: Escherichia coli, MP4, CLSI broth dilution; strain MP-4
K. pneumoniae MP-648 = assay: MIC determination by CLSI broth dilution, K. pneumoniae MP-648; settings: Klebsiella pneumoniae, MP648, CLSI broth dilution; strain MP-648
P. aeruginosa MP-3 = assay: MIC determination by CLSI broth dilution, P. aeruginosa MP-3; settings: Pseudomonas aeruginosa, MP3, strain MP-3
A. baumannii MP-15 = assay: MIC determination by CLSI broth dilution, A. baumannii MP-15; settings: Acinetobacter baumannii, MP15, strain MP-15, read-out: MIC A. baumanii MP-15

| SMILES | MIC (S. aureus MP-12) | MIC (E. coli MP-4) | MIC (K. pneumoniae MP-648) | MIC (P. aeruginosa MP-3) | MIC (A. baumannii MP-15) |
| --- | --- | --- | --- | --- | --- |
| CCN1CCN(C[C@H]2COC(=O)C(C)(C)C(=O)[C@H](C)[C@@H](O[C@@H]3O[C@H](C)C[C@H](N(C)C)[C@H]3O)[C@](C)(OC)C[C@@H](C)CN2C)CC1 [Compound 155, (3S,6R,8R,9R,10R)-9-(((2S,3R,4S,6R)-4-(dimethylamino)-3-hydroxy-6-methyltetrahydro-2H-pyran-2-yl)oxy)-3-((4-ethylpiperazin-1-yl)methyl)-8-methoxy-4,6,8,10,12,12-hexamethyl-1-oxa-4-azacyclotridecane-11,13-dione] | 4 to 32 mg/L (≈ 6.38 to 51 µM) | < 4 mg/L | 4 to 32 mg/L (≈ 6.38 to 51 µM) | > 32 mg/L | > 32 mg/L |
| CO[C@]1(C)C[C@@H](C)CN(C)[C@@H](CN2CCN(C(C)C)CC2)COC(=O)C(C)(C)C(=O)[C@H](C)[C@H]1O[C@@H]1O[C@H](C)C[C@H](N(C)C)[C@H]1O [Compound 156, (3S,6R,8R,9R,10R)-9-(((2S,3R,4S,6R)-4-(dimethylamino)-3-hydroxy-6-methyltetrahydro-2H-pyran-2-yl)oxy)-3-((4-isopropylpiperazin-1-yl)methyl)-8-methoxy-4,6,8,10,12,12-hexamethyl-1-oxa-4-azacyclotridecane-11,13-dione] | 4 to 32 mg/L (≈ 6.24 to 49.9 µM) | < 4 mg/L | 4 to 32 mg/L (≈ 6.24 to 49.9 µM) | > 32 mg/L | > 32 mg/L |
| CCN1C[C@H](C)C[C@@](C)(OC)[C@H](O[C@@H]2O[C@H](C)C[C@H](N(C)C)[C@H]2O)[C@@H](C)C(=O)C(C)(C)C(=O)OC[C@@H]1CN1CCN(C)CC1 [Compound 157, (3S,6R,8R,9R,10R)-9-(((2S,3R,4S,6R)-4-(dimethylamino)-3-hydroxy-6-methyltetrahydro-2H-pyran-2-yl)oxy)-4-ethyl-8-methoxy-6,8,10,12,12-pentamethyl-3-((4-methylpiperazin-1-yl)methyl)-1-oxa-4-azacyclotridecane-11,13-dione] | 4 to 32 mg/L (≈ 6.38 to 51 µM) | < 4 mg/L | 4 to 32 mg/L (≈ 6.38 to 51 µM) | > 32 mg/L | > 32 mg/L |
| CCN1CCN(C[C@H]2COC(=O)C(C)(C)C(=O)[C@H](C)[C@@H](O[C@@H]3O[C@H](C)C[C@H](N(C)C)[C@H]3O)[C@](C)(OC)C[C@@H](C)CN2CC)CC1 [Compound 158, (3S,6R,8R,9R,10R)-9-(((2S,3R,4S,6R)-4-(Dimethylamino)-3-hydroxy-6-methyltetrahydro-2H-pyran-2-yl)oxy)-4-ethyl-3-((4-ethylpiperazin-1-yl)methyl)-8-methoxy-6,8,10,12,12-pentamethyl-1-oxa-4-azacyclotridecane-11,13-dione] | 4 to 32 mg/L (≈ 6.24 to 49.9 µM) | < 4 mg/L | 4 to 32 mg/L (≈ 6.24 to 49.9 µM) | > 32 mg/L | > 32 mg/L |
| CCN1C[C@H](C)C[C@@](C)(OC)[C@H](O[C@@H]2O[C@H](C)C[C@H](N(C)C)[C@H]2O)[C@@H](C)C(=O)C(C)(C)C(=O)OC[C@@H]1CN1CCN(C(C)C)CC1 [Compound 159] | 4 to 32 mg/L (≈ 6.11 to 48.9 µM) | < 4 mg/L | 4 to 32 mg/L (≈ 6.11 to 48.9 µM) | > 32 mg/L | > 32 mg/L |
| CCN1C[C@H](C)C[C@@](C)(OC)[C@H](O[C@@H]2O[C@H](C)C[C@H](N(C)C)[C@H]2O)[C@@H](C)C(=O)C(C)(C)C(=O)OC[C@H]1CC1CCN(CCO)CC1 [Compound 169, (3R,6R,8R,9R,10R)-9-(((2S,3R,4S,6R)-4-(Dimethylamino)-3-hydroxy-6-methyltetrahydro-2H-pyran-2-yl)oxy)-4-ethyl-3-((1-(2-hydroxyethyl)piperidin-4-yl)methyl)-8-methoxy-6,8,10,12,12-pentamethyl-1-oxa-4-azacyclotridecane-11,13-dione] | 4 to 32 mg/L (≈ 6.1 to 48.8 µM) | < 4 mg/L | 4 to 32 mg/L (≈ 6.1 to 48.8 µM) | > 32 mg/L | > 32 mg/L |
| CCN1C[C@H](C)C[C@@](C)(OC)[C@H](O[C@@H]2O[C@H](C)C[C@H](N(C)C)[C@H]2O)[C@@H](C)C(=O)C(C)(C)C(=O)OC[C@H]1CC1CCN(CCOC)CC1 [Compound 170] | 4 to 32 mg/L (≈ 5.97 to 47.8 µM) | < 4 mg/L | < 4 mg/L | > 32 mg/L | > 32 mg/L |
| CO[C@]1(C)C[C@@H](C)CN(C)[C@H](CC2CCN(CCO)CC2)COC(=O)C(C)(C)C(=O)[C@H](C)[C@H]1O[C@@H]1O[C@H](C)C[C@H](N(C)C)[C@H]1O [Compound 178] | > 32 mg/L | < 4 mg/L | < 4 mg/L | > 32 mg/L | > 32 mg/L |
| CCN1C[C@H](C)C[C@@](C)(OC)[C@H](O[C@@H]2O[C@H](C)C[C@H](N(C)C)[C@H]2O)[C@@H](C)C(=O)C(C)(C)C(=O)OC[C@@H]1CCCN1CCN(C)CC1 [Compound 180] | > 32 mg/L | < 4 mg/L | > 32 mg/L | > 32 mg/L | > 32 mg/L |
| CCN1C[C@H](C)C[C@@](C)(OC)[C@H](O[C@@H]2O[C@H](C)C[C@H](N(C)C)[C@H]2O)[C@@H](C)C(=O)C(C)(C)C(=O)OC[C@@H]1CCCN1CCN(c2ccncc2)CC1 [Compound 181] | > 32 mg/L | < 4 mg/L | > 32 mg/L | > 32 mg/L | > 32 mg/L |
| CCN1C[C@H](C)C[C@@](C)(OC)[C@H](O[C@@H]2O[C@H](C)C[C@H](N(C)C)[C@H]2O)[C@@H](C)C(=O)C(C)(C)C(=O)OC[C@H]1C=C1CCN(C2Cc3ccccc3C2)CC1 [Compound 191] | < 4 mg/L | < 4 mg/L | < 4 mg/L | > 32 mg/L | 4 to 32 mg/L (≈ 5.51 to 44.1 µM) |
| CCN1C[C@H](C)C[C@@](C)(OC)[C@H](O[C@@H]2O[C@H](C)C[C@H](N(C)C)[C@H]2O)[C@@H](C)C(=O)C(C)(C)C(=O)OC[C@H]1C=C1CCN(Cc2ccccc2)CC1 [Compound 192] | < 4 mg/L | < 4 mg/L | 4 to 32 mg/L (≈ 5.71 to 45.7 µM) | > 32 mg/L | 4 to 32 mg/L (≈ 5.71 to 45.7 µM) |
| CCN1C[C@H](C)C[C@@](C)(OC)[C@H](O[C@@H]2O[C@H](C)C[C@H](N(C)C)[C@H]2O)[C@@H](C)C(=O)C(C)(C)C(=O)OC[C@H]1[C@H](O)CCN(C)CC(F)(F)F [Compound 193, (3S,6R,8R,9R,10R)-9-(((2S,3R,4S,6R)-4-(dimethylamino)-3-hydroxy-6-methyltetrahydro-2H-pyran-2-yl)oxy)-4-ethyl-3-((R)-1-hydroxy-3-(methyl(2,2,2-trifluoroethyl)amino)propyl)-8-methoxy-6,8,10,12,12-pentamethyl-1-oxa-4-azacyclotridecane-11,13-dione] | > 32 mg/L | 4 to 32 mg/L (≈ 5.85 to 46.8 µM) | > 32 mg/L | > 32 mg/L | > 32 mg/L |
| CCN1C[C@H](C)C[C@@](C)(OC)[C@H](O[C@@H]2O[C@H](C)C[C@H](N(C)C)[C@H]2O)[C@@H](C)C(=O)C(C)(C)C(=O)OC[C@H]1[C@H](O)CCN(C)Cc1ccccc1 [Compound 194] | 4 to 32 mg/L (≈ 5.78 to 46.2 µM) | < 4 mg/L | < 4 mg/L | > 32 mg/L | 4 to 32 mg/L (≈ 5.78 to 46.2 µM) |
| CO[C@]1(C)C[C@@H](C)CN(C)[C@H](/C=C/CN(C)Cc2ccc(F)cc2)COC(=O)C(C)(C)C(=O)[C@H](C)[C@H]1O[C@@H]1O[C@H](C)C[C@H](N(C)C)[C@H]1O [Compound 195] | 4 to 32 mg/L (≈ 5.9 to 47.2 µM) | < 4 mg/L | 4 to 32 mg/L (≈ 5.9 to 47.2 µM) | > 32 mg/L | 4 to 32 mg/L (≈ 5.9 to 47.2 µM) |
| CCN(C)[C@H]1C[C@H](C[C@]2(C)COC(=O)C(C)(C)C(=O)[C@H](C)[C@@H](O[C@@H]3O[C@H](C)C[C@H](N(C)C)[C@H]3O)[C@](C)(OC)C[C@@H](C)CN2C)C1 [Compound 196] | 4 to 32 mg/L (≈ 6.25 to 50 µM) | < 4 mg/L | > 32 mg/L | > 32 mg/L | > 32 mg/L |
| CO[C@]1(C)C[C@@H](C)CN(C)[C@](C)(C[C@H]2C[C@H](N(C)CC3CC3)C2)COC(=O)C(C)(C)C(=O)[C@H](C)[C@H]1O[C@@H]1O[C@H](C)C[C@H](N(C)C)[C@H]1O [Compound 197] | 4 to 32 mg/L (≈ 6.01 to 48.1 µM) | < 4 mg/L | 4 to 32 mg/L (≈ 6.01 to 48.1 µM) | > 32 mg/L | > 32 mg/L |
| CO[C@]1(C)C[C@@H](C)CN(C)[C@](C)(C[C@H]2C[C@H](N(C)C(C)C)C2)COC(=O)C(C)(C)C(=O)[C@H](C)[C@H]1O[C@@H]1O[C@H](C)C[C@H](N(C)C)[C@H]1O [Compound 198] | 4 to 32 mg/L (≈ 6.12 to 48.9 µM) | 4 to 32 mg/L (≈ 6.12 to 48.9 µM) | > 32 mg/L | > 32 mg/L | > 32 mg/L |
| CN[C@H]1C[C@H](C[C@]2(C)COC(=O)C(C)(C)C(=O)[C@H](C)[C@@H](O[C@@H]3O[C@H](C)C[C@H](N(C)C)[C@H]3O)[C@](C)(OC)C[C@@H](C)CN2C)C1 [Compound 199] | 4 to 32 mg/L (≈ 6.54 to 52.3 µM) | 4 to 32 mg/L (≈ 6.54 to 52.3 µM) | > 32 mg/L | > 32 mg/L | > 32 mg/L |
| CCN1C[C@H](C)C[C@@](C)(OC)[C@H](O[C@@H]2O[C@H](C)C[C@H](N(C)C)[C@H]2O)[C@@H](C)C(=O)C(C)(C)C(=O)OC[C@H]1[C@H](O)CCO [Compound 200, (3S,6R,8R,9R,10R)-3-((R)-1,3-dihydroxypropyl)-9-(((2S,3R,4S,6R)-4-(dimethylamino)-3-hydroxy-6-methyltetrahydro-2H-pyran-2-yl)oxy)-4-ethyl-8-methoxy-6,8,10,12,12-pentamethyl-1-oxa-4-azacyclotridecane-11,13-dione] | > 32 mg/L | 4 to 32 mg/L (≈ 6.79 to 54.3 µM) | > 32 mg/L | > 32 mg/L | > 32 mg/L |
| CO[C@]1(C)C[C@@H](C)CN(C)[C@H]([C@H](O)[C@@H](O)CO)COC(=O)C(C)(C)C(=O)[C@H](C)[C@H]1O[C@@H]1O[C@H](C)C[C@H](N(C)C)[C@H]1O [Compound 201] | > 32 mg/L | 4 to 32 mg/L (≈ 6.77 to 54.2 µM) | > 32 mg/L | > 32 mg/L | > 32 mg/L |
| CCCN(CCC)CC[C@@H](O)[C@@H]1COC(=O)C(C)(C)C(=O)[C@H](C)[C@@H](O[C@@H]2O[C@H](C)C[C@H](N(C)C)[C@H]2O)[C@](C)(OC)C[C@@H](C)CN1CC [Compound 223] | 4 to 32 mg/L (≈ 5.95 to 47.6 µM) | < 4 mg/L | 4 to 32 mg/L (≈ 5.95 to 47.6 µM) | > 32 mg/L | > 32 mg/L |
